Reference: article PMC2865264 (The Journal of Biological Chemistry, 2010)

Legend:
GST:PK53 = GST:PK53 (Trypanosoma brucei, UniProt Q582J2, E440D); details: ATP at its Km; peptide KKLNRTLSFAEPG; Tris-HCl pH 7.0, 1 mM MnCl2, 1% DMSO
GST:PK50 = molecular target: T1, GST:PK50 (Trypanosoma brucei, UniProt Q26801); assay: radiometric filter plate kinase assay, [gamma-33P]ATP, 10-point dilution; format: biochemical
T1 sequence (Q26801 1-437): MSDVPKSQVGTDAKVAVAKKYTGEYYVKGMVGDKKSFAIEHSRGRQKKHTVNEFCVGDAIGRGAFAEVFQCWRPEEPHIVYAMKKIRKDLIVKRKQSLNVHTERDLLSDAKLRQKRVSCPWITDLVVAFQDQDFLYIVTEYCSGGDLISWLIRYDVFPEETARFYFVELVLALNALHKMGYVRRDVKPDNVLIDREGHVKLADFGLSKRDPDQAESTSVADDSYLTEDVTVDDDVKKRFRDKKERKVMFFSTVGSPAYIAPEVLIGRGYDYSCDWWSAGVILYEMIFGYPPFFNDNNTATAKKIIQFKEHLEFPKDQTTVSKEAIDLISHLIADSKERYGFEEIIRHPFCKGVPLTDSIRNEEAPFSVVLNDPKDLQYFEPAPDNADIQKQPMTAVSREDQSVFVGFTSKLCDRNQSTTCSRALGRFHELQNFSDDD

purified protein = substrate: Nc1ncnc2c1ncn2[C@@H]1O[C@H](COP(=O)(O)OP(=O)(O)OP(=O)(O)O)[C@@H](O)[C@H]1O; assay: purified protein; details: co-substrate peptide … varied, 15 nM enzyme, Tris-HCl pH 7.9, 3 mM MnCl2

Question: `CN[C@@H]1C[C@H]2O[C@@](C)([C@@H]1OC)n1c3ccccc3c3c4c(c5c6ccccc6n2c5c31)C(=O)NC4` [staurosporine] was tested. Which IC50 (GST:PK53) did it give?
Answer: The IC50 was 4.6 ± 0.3 nM.

Question: And the IC50 (GST:PK50)?
Answer: The IC50 was 216 ± 47 nM.

B1: GST:PK50 (Trypanosoma brucei) (protein)
chain: MSDVPKSQVGTDAKVAVAKKYTGEYYVKGMVGDKKSFAIEHSRGRQKKHTVNEFCVGDAIGRGAFAEVFQCWRPEEPHIVYAMKKIRKDLIVKRKQSLNVHTERDLLSDAKLRQKRVSCPWITDLVVAFQDQDFLYIVTEYCSGGDLISWLIRYDVFPEETARFYFVELVLALNALHKMGYVRRDVKPDNVLIDREGHVKLADFGLSKRDPDQAESTSVADDSYLTEDVTVDDDVKKRFRDKKERKVMFFSTVGSPAYIAPEVLIGRGYDYSCDWWSAGVILYEMIFGYPPFFNDNNTATAKKIIQFKEHLEFPKDQTTVSKEAIDLISHLIADSKERYGFEEIIRHPFCKGVPLTDSIRNEEAPFSVVLNDPKDLQYFEPAPDNADIQKQPMTAVSREDQSVFVGFTSKLCDRNQSTTCSRALGRFHELQNFSDDD
Question: How did the Km (purified protein) turn out when B1 was run?
Answer: Its Km is 25.7 ± 4.8 µM.
